What is called IC50 is the concentration needed to halve the response being measured.

The values below come from ChEMBL document CHEMBL5465560, “Selectivity Literature for EUbOPEN Chemogenomic Library” (2024).

For test [1], the target named is Testis-specific serine/threonine-protein kinase 4 (Homo sapiens) (UniProt Q6SA08). Put plainly: Selectivity interaction (Kinase panel (Eurofins)) EUB0001564a TSSK4. As to conditions: at 1 µM.
Test [2] addresses T1, Testis-specific serine/threonine-protein kinase 1 (Homo sapiens) (UniProt Q9BXA7).
T1 sequence (whole entry): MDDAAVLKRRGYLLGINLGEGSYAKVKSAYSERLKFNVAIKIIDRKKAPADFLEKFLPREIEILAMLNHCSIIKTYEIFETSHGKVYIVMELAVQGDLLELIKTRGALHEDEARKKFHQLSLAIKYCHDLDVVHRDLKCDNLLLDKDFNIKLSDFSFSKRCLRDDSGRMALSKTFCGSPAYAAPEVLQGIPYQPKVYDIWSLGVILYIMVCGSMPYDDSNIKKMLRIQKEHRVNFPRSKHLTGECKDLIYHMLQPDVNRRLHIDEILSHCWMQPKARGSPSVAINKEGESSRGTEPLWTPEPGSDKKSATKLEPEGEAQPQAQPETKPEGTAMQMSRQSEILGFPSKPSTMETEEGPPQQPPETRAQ
Put plainly: Selectivity interaction (KinomeScan (DiscoverX)) EUB0001619a TSSK1B. To be noted: at 1 µM.

In test [3] the target is Serine/threonine-protein kinase 26 (Homo sapiens, UniProt Q9P289). As to conditions: PBMC, at 1 µM.
Sequence of Serine/threonine-protein kinase 26 (Q9P289 2-416 limits assumed): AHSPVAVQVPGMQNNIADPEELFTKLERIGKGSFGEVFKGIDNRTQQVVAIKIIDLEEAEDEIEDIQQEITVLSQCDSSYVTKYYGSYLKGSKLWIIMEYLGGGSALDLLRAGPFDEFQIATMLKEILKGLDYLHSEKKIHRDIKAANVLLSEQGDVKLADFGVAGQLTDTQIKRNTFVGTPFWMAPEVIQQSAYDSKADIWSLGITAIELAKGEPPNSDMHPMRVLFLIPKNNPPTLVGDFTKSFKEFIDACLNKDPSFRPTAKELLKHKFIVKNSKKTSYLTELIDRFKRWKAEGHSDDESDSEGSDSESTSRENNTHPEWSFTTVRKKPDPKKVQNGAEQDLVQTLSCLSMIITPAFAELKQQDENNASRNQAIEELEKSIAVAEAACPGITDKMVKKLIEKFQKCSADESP
Test [4] addresses Receptor-type tyrosine-protein kinase FLT3 (Homo sapiens) (UniProt P36888). To be noted: at 10 µM.
Test [5] addresses Ribosomal protein S6 kinase alpha-1 (Homo sapiens, UniProt Q15418). Put plainly: Selectivity interaction (KinomeScan (DiscoverX)) EUB0000045b RPS6KA1.
For test [6], the target named is Rho-associated protein kinase 2 (Homo sapiens, UniProt O75116). Put plainly: Selectivity interaction (Enzymatic assay) EUB0001199aCl ROCK2.
Sequence of Rho-associated protein kinase 2 (O75116 whole entry): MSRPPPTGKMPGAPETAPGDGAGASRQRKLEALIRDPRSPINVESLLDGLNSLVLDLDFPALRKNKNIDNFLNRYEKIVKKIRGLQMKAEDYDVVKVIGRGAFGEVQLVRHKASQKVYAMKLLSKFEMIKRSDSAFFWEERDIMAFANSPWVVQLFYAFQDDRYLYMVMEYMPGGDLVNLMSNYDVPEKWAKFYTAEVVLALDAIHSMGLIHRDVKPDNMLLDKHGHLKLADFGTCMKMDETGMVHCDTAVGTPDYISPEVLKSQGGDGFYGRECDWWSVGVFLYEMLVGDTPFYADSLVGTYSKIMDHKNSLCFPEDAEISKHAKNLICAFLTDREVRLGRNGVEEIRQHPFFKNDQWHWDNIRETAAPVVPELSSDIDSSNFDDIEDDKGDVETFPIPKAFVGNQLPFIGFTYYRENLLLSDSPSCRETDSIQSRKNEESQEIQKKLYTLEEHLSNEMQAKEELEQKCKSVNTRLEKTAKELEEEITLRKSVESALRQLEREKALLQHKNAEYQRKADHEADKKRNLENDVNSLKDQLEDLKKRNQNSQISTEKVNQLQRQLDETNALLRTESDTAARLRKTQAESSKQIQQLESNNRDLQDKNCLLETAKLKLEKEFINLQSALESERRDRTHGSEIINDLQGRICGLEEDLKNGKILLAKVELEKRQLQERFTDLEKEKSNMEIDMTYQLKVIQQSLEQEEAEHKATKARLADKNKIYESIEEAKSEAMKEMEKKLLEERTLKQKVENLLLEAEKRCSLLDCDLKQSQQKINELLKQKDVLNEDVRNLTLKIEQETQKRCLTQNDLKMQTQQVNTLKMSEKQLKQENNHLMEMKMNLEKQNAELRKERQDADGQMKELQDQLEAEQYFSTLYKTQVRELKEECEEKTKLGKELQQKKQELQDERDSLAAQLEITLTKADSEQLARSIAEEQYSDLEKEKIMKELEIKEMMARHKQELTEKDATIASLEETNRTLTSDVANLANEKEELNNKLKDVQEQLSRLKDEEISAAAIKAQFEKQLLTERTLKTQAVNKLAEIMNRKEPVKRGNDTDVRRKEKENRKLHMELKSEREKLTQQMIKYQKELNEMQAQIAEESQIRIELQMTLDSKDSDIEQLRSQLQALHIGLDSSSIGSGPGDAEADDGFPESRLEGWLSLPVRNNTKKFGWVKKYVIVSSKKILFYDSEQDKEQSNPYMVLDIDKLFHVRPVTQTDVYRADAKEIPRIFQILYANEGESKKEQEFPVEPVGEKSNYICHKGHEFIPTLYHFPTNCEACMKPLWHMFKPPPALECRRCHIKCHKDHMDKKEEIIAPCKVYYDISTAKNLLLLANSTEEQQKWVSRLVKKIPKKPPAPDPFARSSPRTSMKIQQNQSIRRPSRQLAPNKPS
The target in test [7] is T2, Phosphatidylinositol 5-phosphate 4-kinase type-2 beta (Homo sapiens) (UniProt P78356).
T2 sequence (whole entry): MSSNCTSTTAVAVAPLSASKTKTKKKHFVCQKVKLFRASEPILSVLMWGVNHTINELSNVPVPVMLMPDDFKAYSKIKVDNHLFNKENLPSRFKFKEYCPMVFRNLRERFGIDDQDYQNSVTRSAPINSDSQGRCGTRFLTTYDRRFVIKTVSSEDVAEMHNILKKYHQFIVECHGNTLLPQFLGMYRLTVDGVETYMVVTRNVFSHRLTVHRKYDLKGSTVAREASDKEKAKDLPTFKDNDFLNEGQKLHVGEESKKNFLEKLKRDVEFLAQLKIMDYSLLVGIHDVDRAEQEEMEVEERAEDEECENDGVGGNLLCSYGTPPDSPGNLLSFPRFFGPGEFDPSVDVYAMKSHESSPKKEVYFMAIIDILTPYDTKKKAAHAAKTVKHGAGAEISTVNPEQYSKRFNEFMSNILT
Put plainly: Selectivity interaction (Ambit KINOMEscan and KiNATiv profiling in Jurkat cells) EUB0000090b PIP4K2B. In kind it is cell-based. To be noted: at 1 µM.

The target in test [8] is T3, Serine/threonine-protein kinase 17A (Homo sapiens) (UniProt Q9UEE5).
T3 sequence (whole entry): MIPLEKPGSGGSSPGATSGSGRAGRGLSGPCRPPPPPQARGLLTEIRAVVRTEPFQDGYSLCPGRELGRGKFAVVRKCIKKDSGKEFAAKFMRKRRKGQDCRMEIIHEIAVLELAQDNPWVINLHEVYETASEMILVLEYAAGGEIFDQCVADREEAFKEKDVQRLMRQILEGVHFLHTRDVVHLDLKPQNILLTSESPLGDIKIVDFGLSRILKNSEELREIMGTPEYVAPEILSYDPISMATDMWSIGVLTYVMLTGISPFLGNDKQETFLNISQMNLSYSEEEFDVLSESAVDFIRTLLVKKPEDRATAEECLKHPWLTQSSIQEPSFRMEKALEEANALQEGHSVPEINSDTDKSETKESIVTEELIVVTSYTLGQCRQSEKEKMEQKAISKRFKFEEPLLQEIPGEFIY
Put plainly: Selectivity interaction (KinomeScan (DiscoverX)) EUB0001049a STK17A. To be noted: at 1 µM.

Test [9] concerns the target T4, Serine/threonine-protein kinase 3 (Homo sapiens) (UniProt Q13188).
T4 sequence (whole entry): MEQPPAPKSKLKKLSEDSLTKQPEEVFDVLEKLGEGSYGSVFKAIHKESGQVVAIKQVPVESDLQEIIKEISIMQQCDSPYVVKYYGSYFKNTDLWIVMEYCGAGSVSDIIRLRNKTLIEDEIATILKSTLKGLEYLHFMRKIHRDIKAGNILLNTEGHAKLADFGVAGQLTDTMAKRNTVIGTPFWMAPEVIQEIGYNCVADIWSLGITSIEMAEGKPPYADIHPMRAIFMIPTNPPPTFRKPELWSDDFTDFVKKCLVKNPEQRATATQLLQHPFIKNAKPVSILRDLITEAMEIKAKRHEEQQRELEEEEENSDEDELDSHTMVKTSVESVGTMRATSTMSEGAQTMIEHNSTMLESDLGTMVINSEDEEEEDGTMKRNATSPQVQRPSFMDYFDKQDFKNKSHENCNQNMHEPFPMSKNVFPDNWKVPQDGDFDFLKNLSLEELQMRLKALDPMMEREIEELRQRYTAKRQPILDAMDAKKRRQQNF
Put plainly: Selectivity interaction (Upstate Kinase Profiler service (Millipore)) EUB0000056c STK3. As to conditions: at 1 µM.

Test [10] concerns the target Histone-lysine N-methyltransferase SUV39H2 (Homo sapiens) (UniProt Q9H5I1). Put plainly: Selectivity interaction (Methyltransferase screen (radiometric assays, panel of 8 PRMTs, 21 protein lysine methyltransferases, 3 DNA methyltransferases, and one RNA methyltransferase)) EUB0000271b SUV39H2.
The target of test [11] is Proto-oncogene tyrosine-protein kinase ROS (Homo sapiens) (UniProt P08922). Put plainly: Selectivity interaction (KinomeScan (DiscoverX)) EUB0000229b ROS1. As to conditions: at 10 µM.
Test [12] addresses Tyrosine-protein kinase SYK (Homo sapiens, UniProt P43405). Put plainly: Selectivity interaction (KinomeScan (DiscoverX)) EUB0000229b SYK. To be noted: at 10 µM.

Sequence of Histone-lysine N-methyltransferase SUV39H2 (Homo sapiens) (Q9H5I1 whole entry): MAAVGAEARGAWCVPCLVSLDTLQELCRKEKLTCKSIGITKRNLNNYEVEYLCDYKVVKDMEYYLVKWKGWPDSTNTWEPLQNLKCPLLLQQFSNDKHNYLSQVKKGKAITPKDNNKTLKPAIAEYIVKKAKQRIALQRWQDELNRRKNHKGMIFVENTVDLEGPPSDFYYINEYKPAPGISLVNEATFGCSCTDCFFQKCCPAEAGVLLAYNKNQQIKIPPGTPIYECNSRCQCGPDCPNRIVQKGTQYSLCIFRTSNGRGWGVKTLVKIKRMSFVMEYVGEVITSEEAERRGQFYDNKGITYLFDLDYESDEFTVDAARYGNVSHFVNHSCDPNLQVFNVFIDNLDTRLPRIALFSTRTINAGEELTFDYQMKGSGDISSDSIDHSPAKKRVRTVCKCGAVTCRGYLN
Sequence of Ribosomal protein S6 kinase alpha-1 (Q15418 whole entry): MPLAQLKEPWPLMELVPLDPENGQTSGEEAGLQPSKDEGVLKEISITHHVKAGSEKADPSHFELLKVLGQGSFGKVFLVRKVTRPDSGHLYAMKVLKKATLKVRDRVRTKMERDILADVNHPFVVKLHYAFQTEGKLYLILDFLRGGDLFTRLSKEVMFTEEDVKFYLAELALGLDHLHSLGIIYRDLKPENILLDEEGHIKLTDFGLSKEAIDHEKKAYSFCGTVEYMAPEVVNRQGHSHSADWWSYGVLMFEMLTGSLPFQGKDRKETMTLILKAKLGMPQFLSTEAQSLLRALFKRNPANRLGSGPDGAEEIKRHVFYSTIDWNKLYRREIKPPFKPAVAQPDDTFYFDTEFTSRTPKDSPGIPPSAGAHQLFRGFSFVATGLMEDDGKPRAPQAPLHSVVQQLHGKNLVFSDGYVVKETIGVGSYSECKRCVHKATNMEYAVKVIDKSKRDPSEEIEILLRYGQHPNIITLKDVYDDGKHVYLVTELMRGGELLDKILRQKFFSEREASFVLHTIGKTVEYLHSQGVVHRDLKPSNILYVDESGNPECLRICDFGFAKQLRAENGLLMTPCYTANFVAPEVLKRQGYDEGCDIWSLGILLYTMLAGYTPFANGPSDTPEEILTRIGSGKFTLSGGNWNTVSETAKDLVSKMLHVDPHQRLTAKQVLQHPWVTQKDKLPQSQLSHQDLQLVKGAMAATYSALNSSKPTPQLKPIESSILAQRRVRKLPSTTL
Sequence of Testis-specific serine/threonine-protein kinase 4 (Homo sapiens) (Q6SA08 whole entry): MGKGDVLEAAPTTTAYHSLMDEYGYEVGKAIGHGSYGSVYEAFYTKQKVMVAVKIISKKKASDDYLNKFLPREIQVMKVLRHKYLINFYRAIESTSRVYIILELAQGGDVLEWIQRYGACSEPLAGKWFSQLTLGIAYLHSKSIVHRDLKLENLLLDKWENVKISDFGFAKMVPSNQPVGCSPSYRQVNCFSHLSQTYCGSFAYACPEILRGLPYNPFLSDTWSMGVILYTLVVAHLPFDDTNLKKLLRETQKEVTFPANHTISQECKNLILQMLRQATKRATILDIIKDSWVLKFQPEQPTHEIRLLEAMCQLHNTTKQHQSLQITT
Sequence of Receptor-type tyrosine-protein kinase FLT3 (Homo sapiens) (P36888 whole entry): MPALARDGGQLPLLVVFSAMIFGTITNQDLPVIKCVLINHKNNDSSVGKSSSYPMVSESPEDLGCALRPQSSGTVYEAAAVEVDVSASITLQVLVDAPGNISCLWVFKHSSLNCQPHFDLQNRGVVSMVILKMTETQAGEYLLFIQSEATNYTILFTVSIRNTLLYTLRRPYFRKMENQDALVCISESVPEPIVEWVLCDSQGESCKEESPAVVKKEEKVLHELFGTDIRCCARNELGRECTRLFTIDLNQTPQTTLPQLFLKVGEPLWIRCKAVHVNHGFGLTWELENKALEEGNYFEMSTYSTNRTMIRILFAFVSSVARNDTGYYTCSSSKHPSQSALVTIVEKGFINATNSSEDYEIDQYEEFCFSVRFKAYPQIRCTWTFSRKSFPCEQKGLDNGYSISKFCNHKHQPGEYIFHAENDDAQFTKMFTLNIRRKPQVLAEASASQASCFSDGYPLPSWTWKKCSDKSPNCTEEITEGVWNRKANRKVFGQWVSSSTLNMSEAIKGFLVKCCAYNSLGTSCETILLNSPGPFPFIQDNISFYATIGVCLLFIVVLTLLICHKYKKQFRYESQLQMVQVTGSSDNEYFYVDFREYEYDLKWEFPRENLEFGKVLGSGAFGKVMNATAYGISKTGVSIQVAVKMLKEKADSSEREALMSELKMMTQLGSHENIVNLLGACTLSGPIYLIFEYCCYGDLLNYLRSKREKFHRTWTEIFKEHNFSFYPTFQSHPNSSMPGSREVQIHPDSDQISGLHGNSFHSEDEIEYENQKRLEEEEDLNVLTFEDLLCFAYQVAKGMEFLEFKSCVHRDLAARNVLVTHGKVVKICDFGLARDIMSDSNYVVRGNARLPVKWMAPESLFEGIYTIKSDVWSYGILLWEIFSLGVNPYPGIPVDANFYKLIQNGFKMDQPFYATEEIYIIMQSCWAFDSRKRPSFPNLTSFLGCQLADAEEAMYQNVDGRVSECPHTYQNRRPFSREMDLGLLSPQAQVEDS

Regarding `CC[C@@H](Nc1c(C#N)c(-c2ccc(-c3cccc(C)c3F)cc2)nc2cnccc12)C(=O)O` [BAY-091], the % of inhibition in test [1] was found to be 24%.

In test [2], `N#Cc1cccc(-c2c[nH]c3ncnc(N4CCOCC4)c23)c1` came in with a % of control of 75%. In addition, the % of inhibition in [3] was 61%.

`CCN(CC)CCCCNc1ncc2cc(-c3cc(OC)cc(OC)c3)c(NC(=O)NC(C)(C)C)nc2n1` came in with a % of control in [4] of 100%.

Regarding `C=CC(=O)Nc1cc(-n2c(=O)ccc3cnc4ccc(-c5ccc(NS(C)(=O)=O)cc5)cc4c32)ccc1C`, the % of control was 76% in test [5] (at 1 µM) and 67% in test [5] (at 10 µM).

Consider `CN1Cc2nccc(-c3cn(C)nc3-c3ccc(F)cc3)c2C1=O`, for which half-maximal inhibition in test [6] (IC50) was put at 10.2 µM.

As for `CN(C)C/C=C/C(=O)Nc1ccc(C(=O)N2CCCC(Nc3ncc(Cl)c(-c4c[nH]c5ccccc45)n3)C2)cc1` (centres undefined), the % of control in test [7] stood at 83%.

The molecule `COc1cc(Nc2nc(C)cc(-c3cnn4nc(OC)ccc34)n2)cc(C(F)(F)F)c1` returned a % of control in test [8] of 66%.

On to `Cc1ccc(-c2ccc3c(ccc4sc5c(c43)NC[C@@H](C)NC5=O)n2)cn1`, for which the % of inhibition in test [9] was -17%.

`Cc1cc(C)cc([C@@H]2c3cc(C)ccc3NC(=O)CN2C(=O)c2ccc(Br)s2)c1`: the % of activity stood at 99.3% in test [10] (at 1 µM) and 98.3% in test [10] (at 10 µM).

Regarding `COc1cc(N(C)c2ccnc3ccc(C(F)(F)F)cc23)cc(OC)c1OC`, the % binding in test [11] was 86%; in [12], 94%.
